B1: BdPepR2 (Brachypodium distachyon) (protein)
chain: MPGRLSAKRVSLRSLDSTEELPEDMTYEDILRATDNWSEKYVIGKGRHGTVYRTDCKLGKQWAVKTVDLSQCKFPIEMKILNTVKHRNIVRMAGYYIRGNVGLILYEYMPEGTLFELLHERKPQVALGWMARHQIALGVAQGLSYLHQDCVPMIVHRDVKSSNILMDVELVPKLTDFGMGKIVGDEDSDATVSVIVGTLGYIAPEHGYSTRLSEKSDVYSYGVVLLELLCRKMPVDSAFGDGVDIVTWMRSNLKQADHCSVMSCLDEEIVYWPEDEQAKALHLLDLAISCTEVACQLRPSMREVVNVLVRMDK
notes: full length 1146 aa; pGEX-6P-2, E. coli BL21(DE3)pLysS; GST tag cut off with PreScission protease

What was measured:
[1] = molecular target: T1, BdPepR2 (Brachypodium distachyon, UniProt A0A2K2CYK2); test: Kinase-Glo plus luminescent kinase assay; format: biochemical; conditions: 1 µM cGMP suppresses kinase activity; 100 μM ATP, Histone Type III-S, 5 mM MgCl2 and 5 mM MnCl2, 1 mM DTT, 25 mM Tris/HCl pH 7.5, 30 °C; extent only in figure
T1 construct: gene LOC100834510; full length 1146 aa; pGEX-6P-2, E. coli BL21(DE3)pLysS; GST tag cut off with PreScission protease

[2] = molecular target: T2, BdPepR2 (Brachypodium distachyon, UniProt A0A2K2CYK2, M1083A); test: Kinase-Glo plus luminescent kinase assay; format: biochemical; conditions: 1 µM cGMP suppresses kinase activity; 100 μM ATP, Histone Type III-S, 5 mM MgCl2 and 5 mM MnCl2, 1 mM DTT, 25 mM Tris/HCl pH 7.5, 30 °C; extent only in figure
T2 construct: gene LOC100834510; full length 1146 aa; pGEX-6P-2, E. coli BL21(DE3)pLysS; GST tag cut off with PreScission protease

[3] = molecular target: T1, BdPepR2; test: Kinase-Glo plus luminescent kinase assay; format: biochemical; conditions: 1 µM cGMP suppresses kinase activity; 100 μM ATP, Histone Type III-S, 5 mM MgCl2 and 5 mM MnCl2, 1 mM DTT, 25 mM Tris/HCl pH 7.5, 30 °C; extent only in figure; remark: listed apart in the source
Target sequence in this assay (A0A2K2CYK2 entry or part of it M1083R): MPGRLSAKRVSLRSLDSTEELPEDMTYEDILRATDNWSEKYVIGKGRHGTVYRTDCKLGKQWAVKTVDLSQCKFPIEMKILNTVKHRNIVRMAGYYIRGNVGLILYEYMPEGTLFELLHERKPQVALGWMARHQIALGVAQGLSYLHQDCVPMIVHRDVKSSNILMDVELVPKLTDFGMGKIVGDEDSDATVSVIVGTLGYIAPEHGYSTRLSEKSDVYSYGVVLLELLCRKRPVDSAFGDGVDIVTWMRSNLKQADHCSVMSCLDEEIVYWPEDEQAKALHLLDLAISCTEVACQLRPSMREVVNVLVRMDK

[4] = substrate: Nc1nc2c(ncn2[C@@H]2O[C@H](COP(=O)(O)OP(=O)(O)OP(=O)(O)O)[C@@H](O)[C@H]2O)c(=O)[nH]1; test: guanylyl cyclase assay, cGMP by LC-MS/MS; format: biochemical, Brachypodium distachyon; conditions: 5 mM MnCl2, 50 mM Tris/HCl pH 7.5, 30 °C, 15 min, GTP 0.5-2 mM, GC centre

T2 sequence (A0A2K2CYK2 entry or part of it M1083A): as the sequence (A0A2K2CYK2 entry or part of it M1083R) above, with R233A counted along it

| Molecule | Kinase-Glo plus luminescent kinase assay [1] | Kinase-Glo plus luminescent kinase assay [2] | Kinase-Glo plus luminescent kinase assay [3] | Km [4] [µM] |
| --- | --- | --- | --- | --- |
| Nc1nc2c(ncn2[C@@H]2O[C@@H]3COP(=O)(O)O[C@H]3[C@H]2O)c(=O)[nH]1 [cGMP] | only the product of GC activity, cGMP, statistically significantly suppress kinase activity of BdPepR2 | kinase activity of BdPepR2, BdPepR2M1066A, and BdPepR2M1066R is suppressed by GTP and cGMP | kinase activity of BdPepR2, BdPepR2M1066A, and BdPepR2M1066R is suppressed by GTP and cGMP | – |
| B1 | – | – | – | 1189 |

Reference: paper PMC8228174, “In Vitro Characterization of Guanylyl Cyclase BdPepR2 from Brachypodium distachyon Identified through a Motif-Based Approach” (International Journal of Molecular Sciences, 2021)
